Laboratory results reported in the Biogen ADME set (Fang et al. 2023).
In brackets after ≈: the same amount, converted by molar mass.

Details: for aqueous solubility: pH 6.8

| intrinsic clearance, human liver microsomes | intrinsic clearance, rat liver microsomes | aqueous solubility | MDR1-MDCK efflux ratio | fraction unbound, human plasma | fraction unbound, rat plasma | SMILES |
| --- | --- | --- | --- | --- | --- | --- |
| 72.7 mL/min/kg | 349 mL/min/kg | 54.4 µg/mL (≈ 133 µM) |  |  |  | O=C(CN1CCSC1=O)N1CCN(Cc2sc3ccccc3c2Cl)CC1 |
|  |  | 65.5 µg/mL (≈ 199 µM) |  |  |  | Cc1ccnc(NC(=O)C2CCN(CCc3cccs3)CC2)c1 |
| ≤ 4.74 mL/min/kg | 67.5 mL/min/kg |  |  |  |  | Cc1cc2c(=O)n3c(nc2s1)CCNCC3 |
| ≤ 4.74 mL/min/kg | 298 mL/min/kg |  | 10.3 |  |  | CC(=O)N1CCN(C(=O)CS(=O)(=O)C23CC4CC(CC(C4)C2)C3)CC1 |
| 32.1 mL/min/kg |  |  |  |  |  | Cc1cccc(/C=N/Nc2cc(N3CCOCC3)n3nc(-c4ccncc4)cc3n2)c1 |
| 353 mL/min/kg | 770 mL/min/kg | 1.04 µg/mL (≈ 2.32 µM) |  |  |  | CCn1c(COC(=O)c2ccc(C)s2)nc2cc(S(=O)(=O)N3CCCCC3)ccc21 |
| 44.9 mL/min/kg | 541 mL/min/kg | 50.6 µg/mL (≈ 159 µM) | 5.03 |  |  | CN(CC1CCCC1)C(=O)Nc1ccccc1N1CCOC1=O |
|  |  | 44 µg/mL (≈ 172 µM) |  |  |  | CC(C)(C)OC(=O)N1CC=C(CCC(=O)NO)C1 |
| 24.6 mL/min/kg | 463 mL/min/kg |  | 1.3 |  |  | COc1ccccc1C(=O)CSc1nncn1C1CC1 |
| 122 mL/min/kg | 2620 mL/min/kg |  |  |  |  | CC(C)(C)c1csc(Cn2ccnc2-c2ccccn2)n1 |
| 432 mL/min/kg | 1450 mL/min/kg |  |  |  |  | Cc1cc(OCC(=O)N2CCC(n3c(=O)[nH]c4ccccc43)CC2)ccc1Cl |
| 7.73 mL/min/kg |  |  | 9.09 | 0.586 |  | O=C(Nc1ccc(CN2CCCCC2)cc1)c1ccnc2[nH]cnc12 |
|  |  | 44.5 µg/mL (≈ 170 µM) |  |  |  | O=C1NC2(CCCC2)C(=O)N1Cc1ccccc1F |
| 196 mL/min/kg | 2510 mL/min/kg |  | 2.39 |  |  | Cc1ccc2c(c1)cc(C(=O)N1CCOC(C(=O)N3CCc4ccccc4C3)C1)n2C (stereo unspecified) |
| 40.2 mL/min/kg | 402 mL/min/kg |  |  |  |  | Cc1ccc(F)cc1NCc1csc(-c2cnn(C)c2)n1 |
| 75.9 mL/min/kg | 519 mL/min/kg | 29.1 µg/mL (≈ 58.7 µM) | 2.59 |  |  | COc1cc(Br)c(Nc2nc(-c3c(C)nc4ncccn34)cs2)c(Br)c1 |
| 47.7 mL/min/kg | 1310 mL/min/kg |  |  |  |  | Nc1ccccc1-c1nc(C2CCCCCC2)no1 |
| 57.9 mL/min/kg | 1460 mL/min/kg |  | 0.519 |  |  | O=c1c2sccc2nc2n1CCN(Cc1ccc(F)cc1F)CC2 |

| intrinsic clearance, human liver microsomes | intrinsic clearance, rat liver microsomes | aqueous solubility | MDR1-MDCK efflux ratio | fraction unbound, human plasma | fraction unbound, rat plasma | SMILES |
| --- | --- | --- | --- | --- | --- | --- |
| 42.9 mL/min/kg | 334 mL/min/kg |  |  |  |  | Oc1cc(F)ccc1-c1nc(-c2ccncc2)no1 |
| ≤ 4.74 mL/min/kg | ≤ 10.7 mL/min/kg | 4.91 µg/mL (≈ 10.4 µM) | 0.503 |  |  | Cn1c(CNc2ccc(C(=N)N)cc2)nc2cc(C(=O)N(CCC(=O)O)c3ccccn3)ccc21 |
| 6.35 mL/min/kg | 553 mL/min/kg | 46.7 µg/mL (≈ 173 µM) | 2 |  |  | Cc1ccccc1N(CC(=O)N(C)C)S(C)(=O)=O |
| 8.51 mL/min/kg |  |  | 8.96 | 0.513 |  | NC1CC(NC(=O)c2ccc(-c3cn[nH]c3)cn2)C12CCC2 (stereo unspecified) |
| 267 mL/min/kg | 1090 mL/min/kg |  | 12.4 | 0.0394 | 0.0842 | Cc1c(F)cccc1NC(=O)CN1[C@H](Cc2ccccc2)C[C@]2(C)NC(=O)CCC[C@H]12 |
| ≤ 4.74 mL/min/kg | 37.5 mL/min/kg | 69.6 µg/mL (≈ 179 µM) | 7.15 | 0.71 | 0.633 | O=C1NCCN(C(=O)c2ccc3nccn3c2)C1c1ccccc1C(F)(F)F (stereo unspecified) |
| 9.13 mL/min/kg | 368 mL/min/kg | 2.6 µg/mL (≈ 8.77 µM) | 4.71 |  |  | CN(C)c1ccc(Cn2c(=O)[nH]c3ccccc3c2=O)cn1 |
|  |  | 1.71 µg/mL (≈ 7.3 µM) |  |  |  | N#Cc1ccc(COc2ccccc2C#N)cc1 |
| 53.8 mL/min/kg | 632 mL/min/kg | 14.7 µg/mL (≈ 47.6 µM) | 0.638 |  |  | CCCn1c(=O)n(Cc2ccc(C#N)cc2F)c2ccccc21 |
| 25.1 mL/min/kg | 79.3 mL/min/kg | 5.03 µg/mL (≈ 21 µM) |  |  |  | Oc1ccc(-c2noc(-c3cccnc3)n2)cc1 |
| 104 mL/min/kg | 1290 mL/min/kg |  | 4.15 |  |  | CCc1c(C(=O)N2CC[C@@](O)(CC(C)C)[C@@H](Oc3ccc(F)cc3)C2)[nH]c2ccc(C)cc12 |
| 700 mL/min/kg | 1020 mL/min/kg | 12 µg/mL (≈ 28.9 µM) | 1.62 |  |  | CCC(C)(C)NC(=O)C1(Cc2ccc(-c3cc(F)ccc3OC)cc2)CCOCC1 |
| 94.2 mL/min/kg | 670 mL/min/kg | 6.32 µg/mL (≈ 17.8 µM) | 0.712 |  |  | Cc1cc(N)n(-c2ncnc3sc(C)c(-c4ccc(Cl)cc4)c23)n1 |
| 31.6 mL/min/kg | 291 mL/min/kg | 48.6 µg/mL (≈ 146 µM) | 0.841 |  |  | Cn1ccnc1CNc1cc(Br)ccc1-n1cccn1 |
| 4.86 mL/min/kg | 110 mL/min/kg |  | 0.565 |  |  | O=c1cc2c(n[nH]1)-c1cnc(N3CCCCC3)nc1CC2 |
| 5.04 mL/min/kg | 193 mL/min/kg |  | 1.21 |  |  | Cn1ccnc1-c1noc(NCc2ccccc2)n1 |
| 5.64 mL/min/kg | 131 mL/min/kg | 30.6 µg/mL (≈ 83.3 µM) | 5.9 |  |  | CS(=O)(=O)CCc1nc(C2(c3ccccc3)CC2)nn1-c1ccccc1 |
| 64.7 mL/min/kg | ≤ 10.7 mL/min/kg |  | 0.431 |  |  | CN(CCSc1ccc2nnnn2n1)Cc1ccccc1 |

Further lines, the compound ahead of its results:

| SMILES | intrinsic clearance, human liver microsomes | intrinsic clearance, rat liver microsomes | aqueous solubility | MDR1-MDCK efflux ratio | fraction unbound, human plasma | fraction unbound, rat plasma |
| --- | --- | --- | --- | --- | --- | --- |
| CCCS(=O)(=O)Nc1ccc(F)c(C(=O)c2c[nH]c3ncc(Cl)cc23)c1F | 7.61 mL/min/kg | 22.2 mL/min/kg |  |  |  |  |
| Cc1nc(CC2CCN(S(=O)(=O)c3cn(C)cn3)CC2)cc(NC2CCCC2)n1 | 9.96 mL/min/kg | 90.9 mL/min/kg | 59.5 µg/mL (≈ 142 µM) | 37.4 |  |  |
| CN1CCC(O)(CNS(=O)(=O)CC2CCCCC2)CC1 | ≤ 4.74 mL/min/kg | 387 mL/min/kg |  | 2.92 |  |  |
| CCc1nc(C(N)=O)c(Nc2ccc(N3CCC(N4CCN(C)CC4)CC3)c(OC)c2)nc1NC1CCOCC1 | 15 mL/min/kg | 14.7 mL/min/kg | 36.3 µg/mL (≈ 65.7 µM) | 133 |  |  |
| CCCc1cc(-c2nn3c(C4CCCC4)nnc3s2)n(C)n1 | 99.4 mL/min/kg | 2230 mL/min/kg | 13.5 µg/mL (≈ 42.5 µM) |  |  |  |
| O=C(Cc1csc(-c2ccc(F)c(F)c2)n1)NCC(F)(F)F |  |  | 0.36 µg/mL (≈ 1.07 µM) |  |  |  |
| COc1ccnc(N2CC(n3nc(C)cc3C)C2)n1 | ≤ 4.74 mL/min/kg | 44.2 mL/min/kg | 38 µg/mL (≈ 146 µM) | 0.655 |  |  |
| CNc1ncnc2c1ncn2[C@H]1CC[C@H](NC(=O)CCCNC(=O)OC(C)(C)C)[C@H](O)[C@H]1O | 5.08 mL/min/kg | 19.9 mL/min/kg |  | 3.2 |  |  |
| O=C(NCC1(Sc2ccccc2)CC1)c1ccc(=O)[nH]n1 | 7.88 mL/min/kg | 567 mL/min/kg |  |  |  |  |
| CC(=O)N1c2ccccc2C[C@H]1C(=O)O | ≤ 4.74 mL/min/kg | ≤ 10.7 mL/min/kg | 33.6 µg/mL (≈ 164 µM) |  |  |  |
| CC(C)[C@H]1C(=O)N[C@H](CO)Cc2cc(NC(=O)/C=C/C=C/c3ccc(C(F)(F)F)cc3)ccc2N1C | 497 mL/min/kg | 439 mL/min/kg |  | 55.9 |  |  |
| Nc1cnn(CC(=O)Nc2ccc(F)cc2)c1 | 16.1 mL/min/kg | 62.4 mL/min/kg | 54 µg/mL (≈ 231 µM) |  |  |  |
| COc1ccc(-c2cc(C(C)(C)C)nc(-c3ncccn3)n2)cc1 | 21.6 mL/min/kg | 75.5 mL/min/kg |  | 1.22 |  |  |
| COc1ccccc1-c1ccc(CC2(C(=O)NC3CC3)CCOCC2)cc1 | 81.4 mL/min/kg | 2150 mL/min/kg | 41.8 µg/mL (≈ 114 µM) | 1.89 |  |  |
| c1ccc2c(c1)nnn2Cc1ccc2c(c1)OCO2 |  |  | 0.96 µg/mL (≈ 3.79 µM) | 0.581 |  |  |
| Cc1nc2cc(NC(=O)Cc3c(C)nc4ccccc4c3C)ccc2o1 | 8.56 mL/min/kg | 254 mL/min/kg | 23.1 µg/mL (≈ 66.9 µM) | 4.57 |  |  |
| Cc1csc(N(C(=O)c2cc3c(C)nn(C)c3s2)C2CC2)n1 | 121 mL/min/kg | 255 mL/min/kg | 57.3 µg/mL (≈ 172 µM) | 0.642 |  |  |
| CCc1cc(CNC(=O)Nc2ccc(N3CCSCC3)cc2)on1 | 35.9 mL/min/kg | 1430 mL/min/kg |  | 19.2 |  |  |
| Cc1nc(-c2ccccc2)c(C(=O)Nc2ccc(Cl)cc2)s1 |  |  | 0.35 µg/mL (≈ 1.06 µM) | 0.438 |  |  |
| Cc1ccc(C(=O)Nc2ccccc2C#N)cc1 | 88.2 mL/min/kg | 173 mL/min/kg | 10.4 µg/mL (≈ 43.9 µM) |  |  |  |
| O=C(C(c1ccccc1)c1ccccc1)N1CCOCC(Cc2ccc3cnccc3c2)C1 (stereo unspecified) | 404 mL/min/kg | 653 mL/min/kg | 35.3 µg/mL (≈ 80.9 µM) | 1.97 |  |  |
| Cc1ccc(-c2nnc(SCCn3cccn3)[nH]2)cc1 | 96.9 mL/min/kg | 302 mL/min/kg | 21.8 µg/mL (≈ 76.4 µM) |  |  |  |
| OC1(Cc2nc(-c3ccsc3)no2)CCCCC1 | 20.5 mL/min/kg | 1040 mL/min/kg |  | 0.564 |  |  |
| Cc1ccccc1-c1nc(Cn2ccnc2C(C)C)c(C)o1 | 310 mL/min/kg | 2720 mL/min/kg | 49 µg/mL (≈ 166 µM) | 0.732 |  |  |
